For the first assay, the target named is PARP-1 (poly[ADP-ribose] polymerase 1) enzyme (Homo sapiens (Human), UniProt P09874). Put plainly: PARP-1 (poly[ADP-ribose] polymerase 1) enzyme inhibitory ability, Trevigen assay kit. Format: biochemical. The conditions noted are these: 1 nM compound; read-out: PAR P-1 Inhibitory ability at 1 nM. How it is done: In order to evaluate the PARP-1 (poly[ADP-ribose] polymerase 1) enzyme inhibitory ability of the compounds according to the present invention, an experiment was conducted as follows.
Chain of PARP-1 (poly[ADP-ribose] polymerase 1) enzyme (P09874 whole entry): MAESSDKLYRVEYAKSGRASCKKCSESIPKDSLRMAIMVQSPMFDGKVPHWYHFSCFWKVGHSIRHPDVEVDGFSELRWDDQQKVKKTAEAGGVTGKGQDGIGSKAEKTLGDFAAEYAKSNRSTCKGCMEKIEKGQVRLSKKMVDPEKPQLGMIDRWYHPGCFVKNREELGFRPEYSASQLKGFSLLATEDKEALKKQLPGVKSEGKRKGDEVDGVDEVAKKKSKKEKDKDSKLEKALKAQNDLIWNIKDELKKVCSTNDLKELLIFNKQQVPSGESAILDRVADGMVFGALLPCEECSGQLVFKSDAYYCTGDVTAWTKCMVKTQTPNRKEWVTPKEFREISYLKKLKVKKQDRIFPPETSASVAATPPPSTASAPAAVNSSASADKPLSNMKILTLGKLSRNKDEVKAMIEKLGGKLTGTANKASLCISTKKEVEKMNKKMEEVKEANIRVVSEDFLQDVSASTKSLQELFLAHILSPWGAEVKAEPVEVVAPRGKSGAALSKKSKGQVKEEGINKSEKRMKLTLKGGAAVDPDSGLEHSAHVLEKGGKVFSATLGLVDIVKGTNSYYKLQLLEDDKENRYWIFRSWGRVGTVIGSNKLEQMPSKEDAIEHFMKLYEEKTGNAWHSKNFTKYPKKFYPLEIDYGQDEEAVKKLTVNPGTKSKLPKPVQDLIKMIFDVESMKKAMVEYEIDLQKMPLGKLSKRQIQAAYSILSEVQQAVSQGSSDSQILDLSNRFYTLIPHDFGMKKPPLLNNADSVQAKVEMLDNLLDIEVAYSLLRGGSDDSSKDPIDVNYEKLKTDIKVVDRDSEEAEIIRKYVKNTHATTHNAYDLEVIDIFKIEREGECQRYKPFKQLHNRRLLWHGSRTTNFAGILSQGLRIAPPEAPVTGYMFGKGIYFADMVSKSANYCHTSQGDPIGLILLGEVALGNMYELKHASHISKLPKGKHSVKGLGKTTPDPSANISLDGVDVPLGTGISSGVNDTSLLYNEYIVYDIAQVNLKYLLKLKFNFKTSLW
Specifically, in order to evaluate the PARP-1 (poly[ADP-ribose] polymerase 1) enzyme inhibitory ability of the compounds of Examples 1 to 276 according to the present invention, the PARP-1 (poly[ADP-ribose] polymerase 1) activity was investigated in the following manner using an assay kit purchased from Trevigen, Inc. (Catalog number: 4677-096-K). 50 μL of 1×PARP buffer (provided by Trevigen's kit) was dispensed into a 96-well plate coated with histones per each well, and then rehydrated for 30 minutes. After removing the 1×PARP buffer present in the well, PARP-1 (poly[ADP-ribose] polymerase 1) enzyme (0.5 unit/well) and 1 μM concentration or various concentrations of the compounds of Example 1 to 276 were added at room temperature and reacted for 10 minutes. Thereafter, each well was treated with 25 μL of 1×PARP cocktail (biotinylated NAD, activated DNA, provided by Trevigen's kit), and then reacted at room temperature for 1 hour. After the reaction was completed, each well was washed twice with PBS (7.5 mM Na2HPO4, 2.5 mM NaH2PO4, 145 mM NaCl) containing 0.1% triton X-100, and washed twice with PBS. Then, 50 μL of strep-HRP (streptavidin-linked peroxidase) was added and reacted at room temperature for 1 hour, and then washed twice with PBS containing 0.1% triton X-100, and washed twice with PBS. After removing all PBS, 50 μL of TACS-sapphire, a substrate, was added, and reacted at room temperature for 15 minutes while blocking the light. After the reaction was terminated by treatment with 50 μL of 5% phosphoric acid to each well, the absorbance was measured at 450 nm using a microplate reader Victor3 from PerkinElmer, Inc. to quantify the value.
In the case of `Cc1cc(F)cc2c(=O)[nH]c(CCCN3CC=C(c4ccc(C#N)cn4)CC3)cc12` [Example 60, 1′-(3-(7-fluoro-5-methyl-1-oxo-1,2-dihydroisoquinolin-3-yl)propyl)-1′,2′,3′,6′-tetrahydro-[2,4′-bipyridine]-5-carbonitrile], the inhibition at 0.001 µM was < 50%.
On the same count and under the same terms, the value for `Cc1cc(F)cc2c(=O)[nH]c(CCCN3CC=C(c4ccc(F)cn4)CC3)cc12` [Example 62, 7-fluoro-3-(3-(5-fluoro-3′,6′-dihydro-[2,4′-bipyridine]-1′(2′H)-yl)propyl)-5-methylisoquinolin-1(2H)-one] was < 50%; that for `Cc1cc(F)cc2c(=O)[nH]c(CCCN3CC=C(c4ccc(F)nc4)CC3)cc12` [Example 63, 7-fluoro-3-(3-(6-fluoro-3′,6′-dihydro-[3,4′-bipyridine]-1′(2′H)-yl)propyl)-5-methylisoquinolin-1(2H)-one] was < 50%.
The same measure, in the same setting: the value for `Cc1cc(F)cc2c(=O)[nH]c(CCCN3CC=C(c4ccc(C(F)(F)F)cc4)CC3)cc12` [Example 64, 7-fluoro-5-methyl-3-(3-(4-(4-(trifluoromethyl)phenyl)-3,6-dihydropyridin-1(2H)-yl)propyl)isoquinolin-1(2H)-one] was < 50%; that for `Cc1ccc(F)c2c(=O)[nH]c(CCCN3CCN(C(=O)c4cccc(F)c4)CC3)cc12` [Example 65, 8-fluoro-3-(3-(4-(3-fluorobenzoyl)piperazin-1-yl)propyl)-5-methylisoquinolin-1(2H)-one] was < 50%; that for `Cc1ccc(F)c2c(=O)[nH]c(CCCN3CCN(C(=O)c4ccccc4)CC3)cc12` [Example 66, 3-(3-(4-benzoylpiperazin-1-yl)propyl)-8-fluoro-5-methylisoquinolin-1(2H)-one] was < 50%.
For the molecule `Cc1ccc(F)c2c(=O)[nH]c(CCCN3CCN(C(=O)c4ccc(F)cc4)CC3)cc12` [Example 67, 8-fluoro-3-(3-(4-(4-fluorobenzoyl)piperazin-1-yl)propyl)-5-methylisoquinolin-1(2H)-one], the inhibition at 0.001 µM is < 50%.
The same measure, in the same setting: the value for `N#Cc1ccc(N2CCN(C(=O)CCc3cc4cccc(F)c4c(=O)[nH]3)CC2)cc1` [Example 68, 4-(4-(3-(8-fluoro-1-oxo-1,2-dihydroisoquinolin-3-yl)propanoyl)piperazin-1-yl)benzonitrile] was < 50%.
For `N#Cc1ccc(C2=CCN(C(=O)CCc3cc4cccc(F)c4c(=O)[nH]3)CC2)cc1` [Example 69, 4-(1-(3-(8-fluoro-1-oxo-1,2-dihydroisoquinolin-3-yl)propanoyl)-1,2,3,6-tetrahydropyridin-4-yl)benzonitrile], the inhibition at 0.001 µM was < 50%.
The same measure, in the same setting: the value for `N#Cc1ccc(N2CCN(C(=O)CCc3cc4cccc(F)c4c(=O)[nH]3)CC2)cn1` [Example 70, 5-(4-(3-(8-fluoro-1-oxo-1,2-dihydroisoquinolin-3-yl)propanoyl)piperazin-1-yl)picolinonitrile] was < 50%; that for `N#Cc1ccc(N2CCN(C(=O)CCc3cc4cccc(F)c4c(=O)[nH]3)CC2)nc1` [Example 71, 6-(4-(3-(8-fluoro-1-oxo-1,2-dihydroisoquinolin-3-yl)propanoyl)piperazin-1-yl)nicotinonitrile] was < 50%.
On to `N#Cc1ccc(N2CCN(C(=O)CCc3cc4cccc(F)c4c(=O)[nH]3)CC2)cc1F` [Example 72, 2-fluoro-4-(4-(3-(8-fluoro-1-oxo-1,2-dihydroisoquinolin-3-yl)propanoyl)piperazin-1-yl)benzonitrile], for which the inhibition at 0.001 µM was < 50%.
With `N#Cc1ccc(N2CCN(C(=O)CCc3cc4cccc(F)c4c(=O)[nH]3)CC2)c(F)c1` [Example 73, 3-fluoro-4-(4-(3-(8-fluoro-1-oxo-1,2-dihydroisoquinolin-3-yl)propanoyl)piperazin-1-yl)benzonitrile], the inhibition at 0.001 µM was < 50%.
In the case of `N#Cc1ccccc1N1CCN(C(=O)CCc2cc3cccc(F)c3c(=O)[nH]2)CC1` [Example 74, 2-(4-(3-(8-fluoro-1-oxo-1,2-dihydroisoquinolin-3-yl)propanoyl)piperazin-1-yl)benzonitrile], the inhibition at 0.001 µM is < 50%.
For `O=C(CCc1cc2cccc(F)c2c(=O)[nH]1)N1CCN(c2ccccc2F)CC1` [Example 75, 8-fluoro-3-(3-(4-(2-fluorophenyl)piperazin-1-yl)-3-oxopropyl)isoquinolin-1(2H)-one], the inhibition at 0.001 µM is < 50%.
As for `N#Cc1cc(F)ccc1N1CCN(C(=O)CCc2cc3cccc(F)c3c(=O)[nH]2)CC1` [Example 76, 5-fluoro-2-(4-(3-(8-fluoro-1-oxo-1,2-dihydroisoquinolin-3-yl)propanoyl)piperazin-1-yl)benzonitrile], the inhibition at 0.001 µM is < 50%.
Same read-out and setting: the value for `N#Cc1cccc(N2CCN(C(=O)CCc3cc4cccc(F)c4c(=O)[nH]3)CC2)c1` [Example 77, 3-(4-(3-(8-fluoro-1-oxo-1,2-dihydroisoquinolin-3-yl)propanoyl)piperazin-1-yl)benzonitrile] was < 50%.
For `O=C(CCc1cc2cccc(F)c2c(=O)[nH]1)N1CCN(c2ccc(F)cc2F)CC1` [Example 78, 3-(3-(4-(2,4-difluorophenyl)piperazin-1-yl)-3-oxopropyl)-8-fluoroisoquinolin-1(2H)-one], the inhibition at 0.001 µM is < 50%.
Same read-out and setting: the value for `N#Cc1ccc(F)c(N2CCN(C(=O)CCc3cc4cccc(F)c4c(=O)[nH]3)CC2)c1` [Example 79, 4-fluoro-3-(4-(3-(8-fluoro-1-oxo-1,2-dihydroisoquinolin-3-yl)propanoyl)piperazin-1-yl)benzonitrile] was < 50%.
For `N#Cc1cc(N2CCN(C(=O)CCc3cc4cccc(F)c4c(=O)[nH]3)CC2)ccc1F` [Example 80, 2-fluoro-5-(4-(3-(8-fluoro-1-oxo-1,2-dihydroisoquinolin-3-yl)propanoyl)piperazin-1-yl)benzonitrile], the inhibition at 0.001 µM is < 50%.
As to `N#Cc1ccc(F)cc1N1CCN(C(=O)CCc2cc3cccc(F)c3c(=O)[nH]2)CC1` [Example 81, 4-fluoro-2-(4-(3-(8-fluoro-1-oxo-1,2-dihydroisoquinolin-3-yl)propanoyl)piperazin-1-yl)benzonitrile], the inhibition at 0.001 µM is < 50%.
Turning to `O=C(CCc1cc2cccc(F)c2c(=O)[nH]1)N1CC=C(c2ccccc2F)CC1` [Example 82, 8-fluoro-3-(3-(4-(2-fluorophenyl)-3,6-dihydropyridin-1(2H)-yl)-3-oxopropyl)isoquinolin-1(2H)-one], the inhibition at 0.001 µM was < 50%.
With `O=C(CCc1cc2cccc(F)c2c(=O)[nH]1)N1CC=C(c2cccc(F)c2)CC1` [Example 83, 8-fluoro-3-(3-(4-(3-fluorophenyl)-3,6-dihydropyridin-1(2H)-yl)-3-oxopropyl)isoquinolin-1(2H)-one], the inhibition at 0.001 µM is < 50%.
Consider `N#Cc1cc(F)cc(C2=CCN(C(=O)CCc3cc4cccc(F)c4c(=O)[nH]3)CC2)c1` [Example 84, 3-fluoro-5-(1-(3-(8-fluoro-1-oxo-1,2-dihydroisoquinolin-3-yl)propanoyl)-1,2,3,6-tetrahydropyridin-4-yl)benzonitrile], for which the inhibition at 0.001 µM is < 50%.
The same measure, in the same setting: the value for `O=C(CCc1cc2cccc(F)c2c(=O)[nH]1)N1CC=C(c2ccc(F)nc2)CC1` [Example 85, 8-fluoro-3-(3-(6-fluoro-3′,6′-dihydro-[3,4′-bipyridine]-1′(2′H)-yl)-3-oxopropyl)isoquinolin-1(2H)-one] was < 50%.

The assay is the same for the next values; noted with them: PARP-1 enzyme activity.
As for `N#Cc1ccc(N2CCN(C(=O)CCc3cc4cccc(F)c4c(=O)[nH]3)CC2)cc1` [Example 68, 4-(4-(3-(8-fluoro-1-oxo-1,2-dihydroisoquinolin-3-yl)propanoyl)piperazin-1-yl)benzonitrile], the IC50 is 1.9 nM.

The term IC50 denotes the concentration that gives 50% inhibition. Low values mean higher potency, high ones lower potency.
